ChEMBL document CHEMBL5338727, “From (Tool)Bench to Bedside: The Potential of Necroptosis Inhibitors” (J Med Chem, 2023)
“And” between values parts separate entries of the source, which are not always exact repeats. Identical values can stand only once. One block for each molecule: values may come before it.

Experiments:
[1] = target: Receptor-interacting serine/threonine-protein kinase 2 (Homo sapiens) (UniProt O43353); assay: Inhibition of RIPK2 (unknown origin) at 1 uM relative to control
[2] = Anti-necroptotic activity in mouse dermal fibroblast assessed as inhibition in T/S/Q induced necroptosis measured by flow cytometry; assay type: functional, cell-based
Jurkat [3] = assay: Anti-necroptotic activity in FADD-deficient human Jurkat cells assessed as reduction in cell growth preincubated for 30 mins followed by TNFalpha stimulation incubated overnight by CellTiter-Glo assay; assay type: functional, cell-based
[4] = AUC (last) in 2 hrs fasted CD-1 mouse at 3 mg/kg, po; assay type: ADME, organism-based; design: dose 3 mg/kg, route po; settings: in vivo
[5] = Volume of distribution at steady state in 2 hrs fasted CD-1 mouse at 3 mg/kg, po; assay type: ADME, organism-based; settings: in vivo
[6] = Oral bioavailability in 2 hrs fasted CD-1 mouse at 3 mg/kg; assay type: ADME, organism-based; settings: in vivo
[7] = Clearance in 2 hrs fasted CD-1 mouse at 3 mg/kg, po; assay type: ADME, organism-based; settings: in vivo
Jurkat [8] = assay: Anti-necroptotic activity in FADD null human Jurkat cells assessed as inhibition of T/S/Z induced necroptosis by CellTiter-Glo Luminescent Cell Viability assay; assay type: functional, cell-based
HT-29 = assay: Anti-necroptotic activity in human HT-29 cells assessed as inhibition of T/S/Z induced necroptosis by CellTiter-Glo Luminescent Cell Viability assay; assay type: functional, cell-based
[9] = Anti-necroptotic activity in mouse BMDM cells assessed as inhibition of TNF/zVAD.fmk induced necroptosis pretreated for 30 mins measured after 19 to 21 hrs by CellTiter-Glo Luminescent Cell Viability assay
[10] = target: T1, Receptor-interacting serine/threonine-protein kinase 3 (Homo sapiens, UniProt Q9Y572); assay: Inhibition of RIPK3 (unknown origin) expressed in NIH3T3 cells assessed as inhibition of dimerizer-induced pMLKL level by Western blot analysis; assay type: cell-based
CYP3A4 = CYP3A4 (Homo sapiens, UniProt P08684); assay: Inhibition of CYP3A4 (unknown origin) at 10 uM; assay type: ADME
[11] = Metabolic stability in mouse liver microsomes assessed as half life; assay type: ADME, Microsome
CYP1A2 = target: T2, CYP1A2 (Homo sapiens, UniProt P05177); assay: Inhibition of CYP1A2 (unknown origin) at 10 uM; assay type: ADME
T2 sequence (P05177 whole entry): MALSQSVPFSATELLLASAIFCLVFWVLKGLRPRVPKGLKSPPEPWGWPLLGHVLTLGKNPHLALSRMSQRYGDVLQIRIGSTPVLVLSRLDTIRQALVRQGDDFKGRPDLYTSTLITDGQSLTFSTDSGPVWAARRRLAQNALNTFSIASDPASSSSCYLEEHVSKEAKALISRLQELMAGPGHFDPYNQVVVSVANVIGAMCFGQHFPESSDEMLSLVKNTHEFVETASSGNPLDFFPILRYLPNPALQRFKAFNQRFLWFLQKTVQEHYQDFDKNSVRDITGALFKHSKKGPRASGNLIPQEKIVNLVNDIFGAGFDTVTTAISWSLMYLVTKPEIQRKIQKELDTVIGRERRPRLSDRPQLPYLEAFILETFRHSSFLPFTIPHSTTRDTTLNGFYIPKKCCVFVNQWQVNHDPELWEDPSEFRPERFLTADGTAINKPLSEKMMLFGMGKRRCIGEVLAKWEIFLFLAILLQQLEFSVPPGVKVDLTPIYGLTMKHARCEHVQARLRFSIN

[12] = target: Voltage-gated inwardly rectifying potassium channel KCNH2 (Homo sapiens, UniProt Q12809); assay: Inhibition of hERG at 10 uM; assay type: toxicity
CYP2C19 = CYP2C19 (Homo sapiens, UniProt P33261); assay: Inhibition of CYP2C19 (unknown origin) at 10 uM; assay type: ADME
CYP2D6 = CYP2D6 (Homo sapiens, UniProt P10635); assay: Inhibition of CYP2D6 (unknown origin) at 10 uM; assay type: ADME
[13] = Half life in ICR mouse at 2 mg/kg, iv; assay type: ADME, organism-based; settings: in vivo
CYP2C9 = CYP2C9 (Homo sapiens, UniProt P11712); assay: Inhibition of CYP2C9 (unknown origin) at 10 uM; assay type: ADME
[14] = Clearance in ICR mouse at 2 mg/kg, iv; assay type: ADME, organism-based; settings: in vivo
[15] = Metabolic stability in rat liver microsomes assessed as intrinsic clearance; assay type: ADME, Microsome; settings: read-out: CLH
[16] = AUC in ICR mouse at 10 mg/kg, po; assay type: ADME, organism-based; design: dose 10 mg/kg, route po; settings: in vivo
[17] = Metabolic stability in rat liver microsomes assessed as half life; assay type: ADME, Microsome
[18] = Volume of distribution in ICR mouse at 2 mg/kg, iv; assay type: ADME, organism-based; settings: in vivo
[19] = Metabolic stability in mouse liver microsomes assessed as intrinsic clearance; assay type: ADME, Microsome; settings: read-out: CLH
[20] = target: T3, Receptor-interacting serine/threonine-protein kinase 1 (Homo sapiens, UniProt Q13546); assay: Binding affinity to RIPK1 (unknown origin) by ADP-GlO assay
T3 sequence (Q13546 whole entry): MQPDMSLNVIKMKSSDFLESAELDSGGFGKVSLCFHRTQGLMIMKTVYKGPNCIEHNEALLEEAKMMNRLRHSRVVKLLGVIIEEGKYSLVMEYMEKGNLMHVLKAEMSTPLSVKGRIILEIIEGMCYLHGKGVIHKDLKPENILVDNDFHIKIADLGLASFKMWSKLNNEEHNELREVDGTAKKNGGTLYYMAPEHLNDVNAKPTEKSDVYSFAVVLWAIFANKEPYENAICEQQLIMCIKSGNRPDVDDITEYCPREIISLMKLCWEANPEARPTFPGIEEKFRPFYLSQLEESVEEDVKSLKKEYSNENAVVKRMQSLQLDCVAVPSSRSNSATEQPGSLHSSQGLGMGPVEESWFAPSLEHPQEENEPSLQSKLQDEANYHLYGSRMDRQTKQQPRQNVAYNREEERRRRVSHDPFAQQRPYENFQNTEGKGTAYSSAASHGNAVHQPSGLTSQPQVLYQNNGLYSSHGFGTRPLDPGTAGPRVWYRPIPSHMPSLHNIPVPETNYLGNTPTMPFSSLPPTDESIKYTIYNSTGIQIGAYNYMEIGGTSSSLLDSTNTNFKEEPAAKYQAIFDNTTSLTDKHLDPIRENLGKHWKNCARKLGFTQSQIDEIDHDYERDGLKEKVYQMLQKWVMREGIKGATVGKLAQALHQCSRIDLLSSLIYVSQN

[21] = target: T1, Receptor-interacting serine/threonine-protein kinase 3; assay: Inhibition of human RIPK3 using MBP as substrate by [gamma33-ATP] based radiometric assay
[22] = Half life in C57BL/6 mouse plasma at 5 mg/kg, iv; assay type: ADME, organism-based
[23] = Clearance in C57BL/6 mouse plasma at 5 mg/kg, iv; assay type: ADME, organism-based
[24] = Volume of distribution in C57BL/6 mouse plasma at 5 mg/kg, iv; assay type: ADME, organism-based

Receptor-interacting serine/threonine-protein kinase 2 (Homo sapiens), sequence (O43353 whole entry): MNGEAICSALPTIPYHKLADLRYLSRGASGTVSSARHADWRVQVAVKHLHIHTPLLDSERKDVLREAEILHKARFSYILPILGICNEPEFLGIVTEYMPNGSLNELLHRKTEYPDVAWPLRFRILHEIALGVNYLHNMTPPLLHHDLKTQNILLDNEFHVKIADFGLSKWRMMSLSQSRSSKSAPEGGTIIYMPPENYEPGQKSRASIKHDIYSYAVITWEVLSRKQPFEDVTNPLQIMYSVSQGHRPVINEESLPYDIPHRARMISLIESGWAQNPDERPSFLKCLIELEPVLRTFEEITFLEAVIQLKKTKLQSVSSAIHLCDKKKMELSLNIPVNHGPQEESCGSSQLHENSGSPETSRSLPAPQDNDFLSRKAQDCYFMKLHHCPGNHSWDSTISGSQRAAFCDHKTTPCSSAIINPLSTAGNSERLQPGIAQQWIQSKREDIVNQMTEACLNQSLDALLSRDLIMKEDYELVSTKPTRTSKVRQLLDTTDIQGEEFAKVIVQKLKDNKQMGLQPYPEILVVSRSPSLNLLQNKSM
T1 sequence (Q9Y572 whole entry): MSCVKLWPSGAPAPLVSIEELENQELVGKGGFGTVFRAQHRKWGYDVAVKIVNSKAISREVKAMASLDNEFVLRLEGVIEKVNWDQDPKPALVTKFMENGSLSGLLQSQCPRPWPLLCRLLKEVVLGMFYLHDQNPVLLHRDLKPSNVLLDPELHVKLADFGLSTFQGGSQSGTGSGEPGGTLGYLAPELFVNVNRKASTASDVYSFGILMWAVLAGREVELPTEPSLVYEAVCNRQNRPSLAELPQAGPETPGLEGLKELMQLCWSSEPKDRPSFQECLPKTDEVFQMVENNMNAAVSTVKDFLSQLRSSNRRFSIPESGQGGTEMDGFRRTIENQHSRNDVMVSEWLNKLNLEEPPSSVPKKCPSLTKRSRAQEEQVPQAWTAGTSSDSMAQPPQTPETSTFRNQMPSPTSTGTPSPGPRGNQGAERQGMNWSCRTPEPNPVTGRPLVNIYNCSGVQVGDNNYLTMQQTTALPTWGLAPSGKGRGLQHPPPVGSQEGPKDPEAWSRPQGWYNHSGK
Voltage-gated inwardly rectifying potassium channel KCNH2, sequence (Q12809 whole entry): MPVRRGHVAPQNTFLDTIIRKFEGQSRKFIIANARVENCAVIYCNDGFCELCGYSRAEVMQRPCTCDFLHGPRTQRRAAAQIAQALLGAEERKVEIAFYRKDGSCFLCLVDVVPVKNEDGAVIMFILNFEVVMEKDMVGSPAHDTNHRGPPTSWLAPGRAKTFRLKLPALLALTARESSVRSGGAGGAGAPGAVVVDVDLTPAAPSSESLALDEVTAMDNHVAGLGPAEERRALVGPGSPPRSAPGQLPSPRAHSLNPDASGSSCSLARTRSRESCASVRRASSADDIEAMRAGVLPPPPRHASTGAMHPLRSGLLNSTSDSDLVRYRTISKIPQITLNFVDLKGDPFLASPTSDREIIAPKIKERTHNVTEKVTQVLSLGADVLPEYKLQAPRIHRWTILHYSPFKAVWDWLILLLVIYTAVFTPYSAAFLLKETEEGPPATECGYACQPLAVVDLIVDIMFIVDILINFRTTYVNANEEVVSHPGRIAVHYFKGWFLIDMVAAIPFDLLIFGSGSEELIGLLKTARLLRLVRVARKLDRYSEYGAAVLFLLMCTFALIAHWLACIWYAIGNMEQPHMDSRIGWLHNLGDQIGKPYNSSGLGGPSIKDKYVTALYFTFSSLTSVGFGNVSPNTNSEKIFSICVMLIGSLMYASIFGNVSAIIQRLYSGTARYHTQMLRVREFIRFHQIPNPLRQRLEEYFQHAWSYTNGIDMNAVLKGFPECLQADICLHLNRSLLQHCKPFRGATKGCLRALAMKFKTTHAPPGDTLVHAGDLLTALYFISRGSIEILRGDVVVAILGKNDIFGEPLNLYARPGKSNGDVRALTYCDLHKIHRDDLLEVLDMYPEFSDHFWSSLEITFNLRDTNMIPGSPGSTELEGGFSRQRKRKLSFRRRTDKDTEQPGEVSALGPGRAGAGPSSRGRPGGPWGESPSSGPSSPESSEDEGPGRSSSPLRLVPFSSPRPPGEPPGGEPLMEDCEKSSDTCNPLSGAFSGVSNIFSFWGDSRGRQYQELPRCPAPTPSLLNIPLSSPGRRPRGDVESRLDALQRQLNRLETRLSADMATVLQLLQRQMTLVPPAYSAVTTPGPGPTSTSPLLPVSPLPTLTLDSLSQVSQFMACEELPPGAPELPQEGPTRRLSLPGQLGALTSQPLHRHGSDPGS
CYP2C9, sequence (P11712 whole entry): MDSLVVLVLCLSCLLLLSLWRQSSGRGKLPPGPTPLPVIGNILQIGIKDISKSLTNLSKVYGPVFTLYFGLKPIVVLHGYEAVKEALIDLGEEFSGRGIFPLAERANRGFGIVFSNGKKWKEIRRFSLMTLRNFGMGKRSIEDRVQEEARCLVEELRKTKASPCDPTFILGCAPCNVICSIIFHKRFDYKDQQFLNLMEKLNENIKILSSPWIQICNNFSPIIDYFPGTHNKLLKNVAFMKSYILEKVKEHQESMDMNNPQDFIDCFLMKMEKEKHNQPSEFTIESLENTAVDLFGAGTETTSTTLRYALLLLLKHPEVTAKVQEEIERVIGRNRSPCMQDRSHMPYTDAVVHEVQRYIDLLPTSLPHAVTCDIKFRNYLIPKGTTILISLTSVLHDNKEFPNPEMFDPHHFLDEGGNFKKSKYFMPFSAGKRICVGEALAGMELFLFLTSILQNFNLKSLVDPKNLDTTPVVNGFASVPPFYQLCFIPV
CYP2D6, sequence (P10635 whole entry): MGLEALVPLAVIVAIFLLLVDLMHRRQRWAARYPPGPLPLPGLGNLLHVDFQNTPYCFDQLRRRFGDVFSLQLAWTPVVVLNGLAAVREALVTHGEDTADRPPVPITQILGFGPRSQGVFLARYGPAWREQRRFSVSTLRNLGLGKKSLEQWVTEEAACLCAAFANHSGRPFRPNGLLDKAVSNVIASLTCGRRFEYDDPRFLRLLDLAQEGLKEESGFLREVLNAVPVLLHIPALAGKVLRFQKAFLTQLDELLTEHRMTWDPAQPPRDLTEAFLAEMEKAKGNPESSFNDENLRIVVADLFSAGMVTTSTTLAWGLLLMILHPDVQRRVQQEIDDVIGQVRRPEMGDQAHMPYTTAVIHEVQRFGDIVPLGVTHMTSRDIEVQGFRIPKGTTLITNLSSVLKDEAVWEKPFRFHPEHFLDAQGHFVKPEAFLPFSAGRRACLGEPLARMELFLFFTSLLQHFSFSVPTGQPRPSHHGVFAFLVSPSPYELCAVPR
CYP2C19, sequence (P33261 whole entry): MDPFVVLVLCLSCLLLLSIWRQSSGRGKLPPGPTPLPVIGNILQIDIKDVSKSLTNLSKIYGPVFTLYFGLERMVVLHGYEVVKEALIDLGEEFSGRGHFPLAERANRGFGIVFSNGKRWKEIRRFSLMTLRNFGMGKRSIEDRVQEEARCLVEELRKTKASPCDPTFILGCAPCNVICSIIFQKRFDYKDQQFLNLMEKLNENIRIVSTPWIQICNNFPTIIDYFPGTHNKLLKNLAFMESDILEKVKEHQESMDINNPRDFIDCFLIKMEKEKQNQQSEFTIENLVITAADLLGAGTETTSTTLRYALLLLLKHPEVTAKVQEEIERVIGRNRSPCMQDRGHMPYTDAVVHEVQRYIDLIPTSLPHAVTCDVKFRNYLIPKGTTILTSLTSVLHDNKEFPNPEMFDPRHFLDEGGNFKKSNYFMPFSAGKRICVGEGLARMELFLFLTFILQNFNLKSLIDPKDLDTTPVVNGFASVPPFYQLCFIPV
CYP3A4, sequence (P08684 whole entry): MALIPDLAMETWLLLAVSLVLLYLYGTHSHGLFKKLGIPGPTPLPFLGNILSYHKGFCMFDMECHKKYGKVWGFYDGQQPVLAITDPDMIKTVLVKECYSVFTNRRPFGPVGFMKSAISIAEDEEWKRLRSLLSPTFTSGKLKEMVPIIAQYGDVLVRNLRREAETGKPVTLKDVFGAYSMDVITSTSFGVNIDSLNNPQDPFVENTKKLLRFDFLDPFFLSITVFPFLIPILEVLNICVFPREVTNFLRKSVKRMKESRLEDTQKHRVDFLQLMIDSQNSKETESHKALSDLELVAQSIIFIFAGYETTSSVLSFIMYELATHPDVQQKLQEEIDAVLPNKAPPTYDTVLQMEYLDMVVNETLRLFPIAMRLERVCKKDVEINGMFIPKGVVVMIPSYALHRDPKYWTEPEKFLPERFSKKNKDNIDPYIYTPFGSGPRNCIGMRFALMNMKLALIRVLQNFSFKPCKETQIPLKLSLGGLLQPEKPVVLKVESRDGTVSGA

SMILES: Cc1cc(-c2cnc(N)c3c(-c4ccc5scnc5c4)csc23)n(C)n1
inhibition [1]: 84%

SMILES: CN(c1ccc(NC(=O)Nc2ccc(OC(F)(F)F)cc2)cc1)c1ccnc(Nc2cccc(S(N)(=O)=O)c2)n1 [GW806742X]
IC50 [2]: < 50 nM
EC50 (Jurkat [3]): 1850 nM

SMILES: CN1C(=O)[C@@H](NC(=O)c2nc(Cc3ccccc3)n[nH]2)COc2ccc(C#CC3CC3)cc21
AUClast [4]: 15000 ng·h/mL
Vdss [5]: 0.902 L/kg
bioavailability [6]: 99%
CL/F [7]: 3.54 mL/min/kg

SMILES: COc1nccnc1NS(=O)(=O)c1ccc(NC(=O)/C=C/c2ccc([N+](=O)[O-])s2)cc1
IC50 (Jurkat [8]): < 1000 nM
IC50 (HT-29): < 1000 nM and 124 nM

SMILES: CC(C)(C)C(=O)N1N=CC[C@H]1c1ccccc1
IC50 [9]: 3 nM

SMILES: Cl.O=S1(=O)C=C(C2CC2)c2cc3nccc(Nc4ccc5scnc5c4)c3cc21
inhibition at 10 µM (CYP3A4): < 10%
half-life [11]: 26 min
inhibition at 10 µM (CYP1A2): < 10%
IC50 [12]: > 10000 nM
inhibition at 10 µM (CYP2C19): < 10%
inhibition at 10 µM (CYP2D6): < 10%
half-life [13]: 90 min
inhibition at 10 µM (CYP2C9): < 10%
clearance [14]: 33 mL/min/kg
CLint scaled [15]: 67 mL/min/kg
AUC [16]: 8200 ng·h/mL
half-life [17]: 36 min
Vd [18]: 4.4 L/kg
CLint scaled [19]: 212 mL/min/kg

SMILES: N#Cc1c(Oc2ccc(F)c(NC(=O)Cc3cccc(C(F)(F)F)c3)c2)ccc2nc(NC(=O)C3CC3)sc12
Kd [20]: 105 nM

Now from value to molecule:

inhibition [1]: 76%
SMILES: CC(C)S(=O)(=O)c1ccc2nccc(Nc3ccc4scnc4c3)c2c1

EC50 [10]: 73.6 nM
SMILES: Cc1ccc(O)cc1Nc1ccnc2cc(-c3ccccn3)ccc12

EC50 [21]: 20.8 nM
SMILES: Cc1ccc(Oc2ccnc3cc(-c4cnn(C5CCNCC5)c4)ccc23)cc1

half-life [22]: 31.8 min
clearance [23]: 49.2 mL/min/kg
Vd [24]: 1.84 L/kg
SMILES: COc1cc2c(cn1)N(C)C(=O)[C@@H](NC(=O)c1nc3n(n1)[C@H](c1ccccc1)CC3)CC2
